{"source": "patent US20240425589A1", "about": "“CYTOTOXICITY-INDUCING THERAPEUTIC AGENT FOR USE IN TREATMENT OF CANCER” (CHUGAI SEIYAKU KABUSHIKI KAISHA, priority 2021, published 2024)", "key": {"[1]": {"tested_on": "CLDN6 expression in NIH:OVCAR-3", "test": "CLDN6 expression by quantitative PCR after TGF-β1", "type": "cell-based, human", "conditions": "TGF-β1 10 ng/ml, 5 days, vs untreated", "procedure": "Therefore, it was speculated that TGF-β1 induced by treatment with an anticancer agent may affect CLDN6 expression. Accordingly, analyzes were performed to determine whether […] induces CLDN6 expression in the human ovarian cancer cell line (NIH:OVCAR-3, ATCC). Regarding the NIH:OVCAR-3 cells seeded on culture plates, RNAs were purified (RNeasy Mini Kit, QIAGEN) from untreated cells or from cells collected 5 days after addition of TGF-β1 (R & D Systems, 10 ng/ml), and then cDNA synthesis (Superscript IV VILO Master Mix, ThermoFisher) was performed. By using the cDNAs as templates, real-time PCR was performed using CLDN6-specific primers (Power SYBR (registered trademark) Green Master Mix, ThermoFisher) to analyze CLDN6 expression (QuantStudio 12K Flex Real-Time PCR System, ThermoFisher).\nThe same primers as those in the above-mentioned Example 21.1 were used as the primers for human CLDN6 and for the primers for human GAPDH used as the internal control."}, "[2]": {"tested_on": "CLDN6 expression in NIH:OVCAR-3, COV413A, COV413B, COV362", "test": "CLDN6 expression by FACS after TGF-β1", "type": "cell-based, human", "conditions": "TGF-β1 10 ng/mL, four days, vs untreated", "procedure": "Next, analyses were performed to determine whether TGF-β1 induces CLDN6 expression in other ovarian cancer cell lines. In addition to NIH:OVCAR-3 cells, COV413A cells (ECACC), COV413B (ECACC), and COV362 (ECACC) were seeded on culture plates, and TGF-β1 was added at 10 ng/mL. Four days later, cells were recovered, and CLDN6 expression was analyzed by FACS analysis.\nIn the FACS analysis, cells were detached from the culturing flask to produce a cell suspension, these cells were stained using an anti-CLDN6 antibody (CS4135 mIgG1: the heavy-chain and light-chain amino acid sequences are shown in SEQ ID NOs: 210 and 211, respectively, and the heavy-chain and light-chain nucleotide sequences are shown in SEQ ID NOs: 212 and 213, respectively) labeled with Alexa Flour 488 (Alexa Fluor 488 antibody labeling kit, ThermoFisher Scientific), and the amount of CLDN6 expression was analyzed using a flow cytometer (FACSlyric, BD Biosciences). The CS4135 mIgG1 antibody is a chimeric antibody produced by linking the Fc region of a mouse IgG1 to the Fab of the CS4135 antibody."}}}
{"substance": "TGF-β1: TGF-β1 (R & D Systems) added to cells at 10 ng/ml", "values": [{"measurement": "CLDN6 expression", "setting": "[1]", "result": "Increase in CLDN6 expression was observed"}, {"measurement": "CLDN6 expression", "setting": "[2]", "result": "increased CLDN6 expression"}]}
